In patent US8389526B2, “3-heteroarylmethyl-imidazo[1,2-b]pyridazin-6-yl derivatives” (Novartis AG, priority 2009, dated 2013) one finds IC50 data, which are given here for ten molecules.

The IC50 is the point on the concentration scale where inhibition reaches its midpoint.

One experiment has as its target T1, c-Met (Homo sapiens, UniProt P08581).
T1 construct: adapted to measure the phosphorylation of endogenous cellular proteins in cell lysates; endogenous in cells; host or cells: GTL-16
Briefly: GTL-16 c-Met autophosphorylation measured by AlphaScreen detection. The experiment is classed as cell-based. Particulars: GTL-16 cells, 1 h incubation, AlphaScreen p-c-Met; read-out: GTL-16 IC50 c-Met phosphorylation. Put shortly:
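GTL-16 MET-amplified gastric cancer cells, serum-free DMEM with 0.1% BSA, exposed to 8-point compound dilutions for 1 h at 37° C (0.11% DMSO final). Lysates probed for phospho-c-Met by AlphaScreen using anti-c-Met antibody, biotinylated PY20 phosphotyrosine antibody, Protein A acceptor and streptavidin donor beads.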

The test system of experiment [1] is MET-amplified gastric cancer cell line GTL-16. As to the kind of experiment: GTL-16 proliferation assay (MTS). The experiment is classed as cell-based. Particulars: Homo sapiens, GTL-16 cells, 72 h incubation. The method, boiled down:
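GTL-16 cells were seeded at 3000/well in DMEM with 10% FCS. After 24 h they were treated in triplicate with a 10-point, 3-fold dilution series ([…]; DMSO-only control) for 72 h. Viable cells were measured by MTS, with OD 490 nm read after 30 min.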

The target in experiment [2] is T2, c-Met receptor tyrosine kinase, GST-c-Met(969-1390) (Homo sapiens, UniProt P08581).
T2 construct: made in house
T2 sequence (P08581 969-1390): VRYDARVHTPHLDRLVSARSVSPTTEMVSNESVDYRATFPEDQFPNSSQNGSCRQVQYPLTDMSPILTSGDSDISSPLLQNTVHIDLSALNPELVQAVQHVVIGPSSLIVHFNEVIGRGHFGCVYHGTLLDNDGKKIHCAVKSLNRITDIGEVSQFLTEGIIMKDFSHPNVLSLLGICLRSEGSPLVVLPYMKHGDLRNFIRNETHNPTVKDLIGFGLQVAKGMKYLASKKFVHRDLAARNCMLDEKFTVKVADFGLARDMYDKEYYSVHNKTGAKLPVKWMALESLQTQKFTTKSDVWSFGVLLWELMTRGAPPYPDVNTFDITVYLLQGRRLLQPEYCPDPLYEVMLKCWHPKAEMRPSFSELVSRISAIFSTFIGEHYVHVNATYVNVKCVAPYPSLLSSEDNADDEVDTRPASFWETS
Briefly: EPK c-Met profiling assay (LanthaScreen TR-FRET kinase assay). Type of experiment: biochemical. The following applies: 2 μM ATP, 0.3 nM enzyme, 60 minutes at room temperature. The method, boiled down:
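Recombinant GST-c-Met(969-1390) cytoplasmic domain, 0.3 nM, phosphorylating 50 nM Fluorescein-PolyEAY with 2 μM ATP, 10 mM MgCl2, 3 mM MnCl2, 60 min at room temperature. EDTA-stopped; phosphoproduct detected by TR-FRET with Tb-PY20 antibody, end-point read. Final compound 0.003-10 μM over 8 concentrations.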
For orientation: TR-FRET usually uses a lanthanide donor and a delayed reading to cut background.

T1 sequence (P08581 25-1390): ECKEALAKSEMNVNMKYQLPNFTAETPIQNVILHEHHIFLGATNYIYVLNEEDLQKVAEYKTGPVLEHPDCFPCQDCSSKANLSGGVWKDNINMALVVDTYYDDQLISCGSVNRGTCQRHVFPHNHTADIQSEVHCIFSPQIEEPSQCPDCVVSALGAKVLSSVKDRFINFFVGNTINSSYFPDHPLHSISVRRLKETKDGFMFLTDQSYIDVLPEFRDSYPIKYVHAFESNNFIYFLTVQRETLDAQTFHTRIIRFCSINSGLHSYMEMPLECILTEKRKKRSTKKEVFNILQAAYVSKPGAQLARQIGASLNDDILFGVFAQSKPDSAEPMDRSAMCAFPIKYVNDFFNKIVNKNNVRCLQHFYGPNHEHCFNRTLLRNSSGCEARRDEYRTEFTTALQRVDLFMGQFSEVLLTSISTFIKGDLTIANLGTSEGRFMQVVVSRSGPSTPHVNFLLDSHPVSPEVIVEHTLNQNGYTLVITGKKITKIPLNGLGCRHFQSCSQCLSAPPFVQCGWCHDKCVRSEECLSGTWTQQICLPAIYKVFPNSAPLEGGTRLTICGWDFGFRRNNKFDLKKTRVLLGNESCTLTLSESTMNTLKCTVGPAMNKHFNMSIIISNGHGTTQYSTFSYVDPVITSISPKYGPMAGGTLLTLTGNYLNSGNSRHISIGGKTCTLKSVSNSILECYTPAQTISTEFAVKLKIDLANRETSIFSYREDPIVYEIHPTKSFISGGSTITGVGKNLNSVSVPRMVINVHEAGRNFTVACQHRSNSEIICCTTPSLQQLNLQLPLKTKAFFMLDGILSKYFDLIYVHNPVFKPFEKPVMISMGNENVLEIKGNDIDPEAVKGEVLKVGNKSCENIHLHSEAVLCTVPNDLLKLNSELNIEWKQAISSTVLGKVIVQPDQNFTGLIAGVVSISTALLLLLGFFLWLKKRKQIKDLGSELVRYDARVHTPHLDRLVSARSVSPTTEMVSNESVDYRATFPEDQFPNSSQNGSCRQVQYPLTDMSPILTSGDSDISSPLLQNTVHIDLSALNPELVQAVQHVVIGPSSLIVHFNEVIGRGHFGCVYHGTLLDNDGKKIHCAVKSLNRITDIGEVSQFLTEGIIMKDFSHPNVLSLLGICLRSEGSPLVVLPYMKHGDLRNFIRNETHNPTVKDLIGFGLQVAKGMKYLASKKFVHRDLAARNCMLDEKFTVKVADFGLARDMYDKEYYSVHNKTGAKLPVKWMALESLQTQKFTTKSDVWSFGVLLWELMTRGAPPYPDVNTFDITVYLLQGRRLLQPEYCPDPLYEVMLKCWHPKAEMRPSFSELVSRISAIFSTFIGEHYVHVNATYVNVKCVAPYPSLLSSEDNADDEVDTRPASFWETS

Regarding `CC(c1c(F)cc2ncccc2c1F)c1cnc2ccc(N3CCN(C)CC3)nn12` (racemic) [Example 8, (rac)-5,7-Difluoro-6-{1-[6-(4-methyl-piperazin-1-yl)-imidazo[1,2-b]pyridazin-3-yl]-ethyl}-quinoline], the IC50 on c-Met was below 3 nM; in experiment [1], 15.5 nM; in experiment [2] it was 5.7 nM.
`C[C@@H](c1c(F)cc2ncccc2c1F)c1cnc2ccc(N3CCNC(=O)[C@H]3C)nn12` [Example 59, (R)-4-{3-[(S)-1-(5,7-Difluoro-quinolin-6-yl)-ethyl]-imidazo[1,2-b]pyridazin-6-yl}-3-methyl-piperazin-2-one]: the IC50 on c-Met was 3.6 nM; in experiment [1] it was 5.6 nM; in experiment [2], 3 nM.
For `C[C@@H](c1c(F)cc2ncccc2c1F)c1cnc2ccc(N3CCNC(=O)[C@@H]3C)nn12` [Example 60, (S)-4-{3-[(S)-1-(5,7-Difluoro-quinolin-6-yl)-ethyl]-imidazo[1,2-b]pyridazin-6-yl}-3-methyl-piperazin-2-one], the concentration for half-maximal inhibition (IC50) was 2.3 nM at c-Met, 4.8 nM in experiment [1] and 2.6 nM in experiment [2].
For `CC(=O)N1CCN(c2ccc3ncc([C@@H](C)c4cc5cnn(C)c5cc4F)n3n2)CC1` [Example 29, 1-(4-{3-[(S)-1-(6-Fluoro-1-methyl-1H-indazol-5-yl)-ethyl]-imidazo[1,2-b]pyridazin-6-yl}-piperazin-1-yl)-ethanone], the 50% inhibitory concentration (IC50) came out at 25 nM on c-Met, 136 nM in experiment [1] and 55 nM in experiment [2].
As for `O=C1CN(c2ccc3ncc(Cc4ccc5ncccc5c4F)n3n2)CCN1` [Example 44, 4-[3-(5-Fluoro-quinolin-6-ylmethyl)-imidazo[1,2-b]pyridazin-6-yl]-piperazin-2-one], the values for the IC50 (on c-Met; in experiment [1]; in experiment [2]) were 31 nM, 133 nM and 14 nM, respectively.
The corresponding values for `CC(c1c(F)cc2ncccc2c1F)c1cnc2ccc(N3CCN(C(=O)C(F)(F)F)CC3)nn12` (racemic) [Example 17, (rac)-1-(4-{3-[1-(5,7-Difluoro-quinolin-6-yl)-ethyl]-imidazo[1,2-b]pyridazin-6-yl}-piperazin-1-yl)-2,2,2-trifluoro-ethanone] are 14 nM, 20 nM and 24 nM.
As to `CC(c1c(F)cc2ncccc2c1F)c1cnc2ccc(N3CCN(c4ccccc4)C(=O)C3)nn12` (racemic) [Example 22, (rac)-4-{3-[1-(5,7-Difluoro-quinolin-6-yl)-ethyl]-imidazo[1,2-b]pyridazin-6-yl}-1-phenylpiperazin-2-one], the values for the 50% inhibitory concentration (IC50) (on c-Met; in experiment [1]; in experiment [2]) were 6 nM, 15 nM and 14 nM, respectively.
The corresponding values for `O=C1CN(c2ccc3ncc(Cc4c(F)cc5ncccc5c4F)n3n2)CCN1` [Example 31, 4-[3-(5,7-Difluoro-quinolin-6-ylmethyl)-imidazo[1,2-b]pyridazin-6-yl]-piperazin-2-one] are 4.7 nM, 15 nM and 8.2 nM.
Consider `CC(=O)N1CCN(c2ccc3ncc(C(C)c4ccc5ncccc5c4F)n3n2)CC1` (racemic) [Example 48, (rac)-1-(4-{3-[1-(5-Fluoro-quinolin-6-yl)-ethyl]-imidazo[1,2-b]pyridazin-6-yl}-piperazin-1-yl)ethanone], for which the IC50 at c-Met amounted to 35 nM; in experiment [1], 168 nM; in experiment [2], 140 nM.
`C[C@@H](c1c(F)cc2ncccc2c1F)c1cnc2ccc(N3CCN(C=O)CC3)nn12` [Example 13, 4-{3-[(S)-1-(5,7-Difluoro-quinolin-6-yl)-ethyl]-imidazo[1,2-b]pyridazin-6-yl}-piperazine-1-carbaldehyde]: the results for the half-maximal inhibitory concentration (IC50) (on c-Met; in experiment [1]; in experiment [2]) were 2.5 nM, 9.2 nM and below 3 nM, respectively.
